# Source: ChEMBL document CHEMBL1201862, “PubChem BioAssay data set” (2004)
# The source made the active and inactive calls. No stated cut-off is given here; in the data, actives have a measured IC50 and inactives only a lower limit.
# Target: Envelope glycoprotein gp160 (Human immunodeficiency virus 1, UniProt Q6QLK5)
# Assay: cell-free HIV fusion peptide-binding blockers – biochemical, uHTS, fluorescence dequenching, […] (AID 1986)
# Sequence of Envelope glycoprotein gp160 (Q6QLK5 whole entry, the tested form may be a part): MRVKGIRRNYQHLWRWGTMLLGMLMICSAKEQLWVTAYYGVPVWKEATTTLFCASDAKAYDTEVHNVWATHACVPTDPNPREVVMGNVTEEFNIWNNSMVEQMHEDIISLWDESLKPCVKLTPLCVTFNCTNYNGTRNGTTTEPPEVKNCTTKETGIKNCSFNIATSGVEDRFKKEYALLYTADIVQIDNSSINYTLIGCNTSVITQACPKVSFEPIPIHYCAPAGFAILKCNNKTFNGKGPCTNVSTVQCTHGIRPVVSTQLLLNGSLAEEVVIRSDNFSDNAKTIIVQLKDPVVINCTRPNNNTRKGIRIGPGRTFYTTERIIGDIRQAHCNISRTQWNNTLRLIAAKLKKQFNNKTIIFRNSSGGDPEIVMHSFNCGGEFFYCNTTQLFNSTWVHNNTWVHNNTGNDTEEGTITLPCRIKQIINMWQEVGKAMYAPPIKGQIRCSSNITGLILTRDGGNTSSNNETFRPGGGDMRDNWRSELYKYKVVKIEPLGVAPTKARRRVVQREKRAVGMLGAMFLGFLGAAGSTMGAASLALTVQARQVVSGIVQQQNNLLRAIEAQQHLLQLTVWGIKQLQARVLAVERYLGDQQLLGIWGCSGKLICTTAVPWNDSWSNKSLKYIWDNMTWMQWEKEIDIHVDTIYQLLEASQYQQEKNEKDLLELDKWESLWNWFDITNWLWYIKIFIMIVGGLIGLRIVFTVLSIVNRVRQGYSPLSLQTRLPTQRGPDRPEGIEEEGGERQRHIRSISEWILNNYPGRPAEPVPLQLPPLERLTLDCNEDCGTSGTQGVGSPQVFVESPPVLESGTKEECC
compound,measurement,value
COc1ccc(S(=O)(=O)Nc2ccccc2C(=O)Nc2nc(-c3ccc(F)cc3)cs2)cc1OC,IC50,14.8 µM (active)
